Target: T1, Chk1 (Homo sapiens, UniProt O14757)
T1 construct: purchased Upstate Biotechnology
T1 sequence (O14757 1-476): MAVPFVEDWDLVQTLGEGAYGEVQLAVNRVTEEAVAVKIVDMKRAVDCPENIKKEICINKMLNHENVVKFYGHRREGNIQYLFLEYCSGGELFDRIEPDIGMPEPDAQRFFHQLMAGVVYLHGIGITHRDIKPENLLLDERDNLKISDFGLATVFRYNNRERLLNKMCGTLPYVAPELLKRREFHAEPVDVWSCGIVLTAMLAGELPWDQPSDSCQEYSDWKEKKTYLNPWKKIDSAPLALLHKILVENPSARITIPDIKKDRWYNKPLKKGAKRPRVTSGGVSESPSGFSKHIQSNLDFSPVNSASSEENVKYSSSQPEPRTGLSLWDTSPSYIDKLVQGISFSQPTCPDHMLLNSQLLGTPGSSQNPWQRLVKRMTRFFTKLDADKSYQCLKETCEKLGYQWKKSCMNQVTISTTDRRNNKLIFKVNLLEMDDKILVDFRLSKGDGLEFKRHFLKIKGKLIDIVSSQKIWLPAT
Assay: Chk1 kinase assay: incorporation of γ-33P ATP into immobilized myelin basic protein
Assay type: biochemical
Settings: Table 11; Chk1 only; read-out: Chk1 IC50
Summary of the method: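 Radiometric filter-free format: Chk1 10 nM, 10 μM ATP; Chk2 20 nM, 30 μM ATP; γ-33P ATP tracer; immobilized MBP substrate; Hepes pH 7.6, 10 mM MgCl2, 1 mM DTT; 1 h RT; 1% DMSO. Scintillation counting of washed plates. IC50/Ki from curve fit.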

SMILES | IC50
Nc1ncc(-c2cccc(C(=O)NCc3ccccc3)c2)nc1C(=O)NCCNS(=O)(=O)c1cccc2cccnc12 [Example 662, 3-amino-6-(3-{[(phenylmethyl)amino]carbonyl}phenyl)-N-{2-[(quinolin-8-ylsulfonyl)amino]ethyl}pyrazine-2-carboxamide] | ≥ 10 µM
Nc1ncc(-c2cccc(C(=O)NCc3ccccc3)c2)nc1C(=O)NCCNC(=O)c1cnc2ccccc2n1 [Example 663, N-[2-({[3-amino-6-(3-{[(phenylmethyl)amino]carbonyl}phenyl)pyrazin-2-yl]carbonyl}amino)ethyl]quinoxaline-2-carboxamide] | ≥ 10 µM
Nc1ncc(-c2cccc(C(=O)NCc3ccccc3)c2)nc1C(=O)NCCNC(=O)c1cccnc1Cl [Example 664, 3-amino-N-(2-{[(2-chloropyridin-3-yl)carbonyl]amino}ethyl)-6-(3-{[(phenylmethyl)amino]carbonyl}phenyl)pyrazine-2-carboxamide] | 1 to 10 µM
Nc1ncc(-c2cccc(C(=O)NCc3ccccc3)c2)nc1C(=O)NCCNS(=O)(=O)c1ccccn1 [Example 665, 3-amino-6-(3-{[(phenylmethyl)amino]carbonyl}phenyl)-N-{2-[(pyridin-2-ylsulfonyl)amino]ethyl}pyrazine-2-carboxamide] | ≥ 10 µM
Cc1noc(C)c1NC(=O)NCCNC(=O)c1nc(-c2cccc(C(=O)NCc3ccccc3)c2)cnc1N [Example 666, 3-amino-N-[2-({[(3,5-dimethylisoxazol-4-yl)amino]carbonyl}amino)ethyl]-6-(3-{[(phenylmethyl)amino]carbonyl}phenyl)pyrazine-2-carboxamide] | 1 to 10 µM
NC(=O)c1nc(-c2cccc(C(=O)NCc3ccccc3)c2)cnc1N [Example 667, 3-amino-6-(3-{[(phenylmethyl)amino]carbonyl}phenyl)pyrazine-2-carboxamide] | 0.05 to 1 µM
N=C(NNc1nccc(C(F)(F)F)n1)c1nc(-c2cccc(C(=O)NCc3ccccc3)c2)cnc1N [Example 668, 3-[5-amino-6-(imino{2-[4-(trifluoromethyl)pyrimidin-2-yl]hydrazino}methyl)pyrazin-2-yl]-N-(phenylmethyl)benzamide] | 1 to 10 µM
N=C(NNc1nc2ccccc2s1)c1nc(-c2cccc(C(=O)NCc3ccccc3)c2)cnc1N [Example 669, 3-{5-amino-6-[[2-(1,3-benzothiazol-2-yl)hydrazino](imino)methyl]pyrazin-2-yl}-N-(phenylmethyl)benzamide] | ≥ 10 µM
Nc1ncc(-c2cccc(C(=O)NCc3ccccc3)c2)nc1-c1nc(-c2ccccc2)n(-c2ccccc2)n1 [Example 670, 3-[5-amino-6-(1,5-diphenyl-1H-1,2,4-triazol-3-yl)pyrazin-2-yl]-N-(phenylmethyl)benzamide] | ≥ 10 µM
Cc1nc(-c2nc(-c3cccc(C(=O)NCc4ccccc4)c3)cnc2N)nn1C [Example 671, 3-[5-amino-6-(1,5-dimethyl-1H-1,2,4-triazol-3-yl)pyrazin-2-yl]-N-(phenylmethyl)benzamide] | 1 to 10 µM
Cn1nc(-c2nc(-c3cccc(C(=O)NCc4ccccc4)c3)cnc2N)nc1-c1ccccc1 [Example 672, 3-[5-amino-6-(1-methyl-5-phenyl-1H-1,2,4-triazol-3-yl)pyrazin-2-yl]-N-(phenylmethyl)benzamide] | ≥ 10 µM
COC[C@H]1CCCN1/N=C(\C)c1nc(-c2cccc(C(=O)NCc3ccccc3)c2)cnc1N [Example 673, 3-[5-amino-6-((1E)-N-{(2R)-2-[(methyloxy)methyl]pyrrolidin-1-yl}ethanimidoyl)pyrazin-2-yl]-N-(phenylmethyl)benzamide] | 0.05 to 1 µM
C/C(=N\N1CCCCCC1)c1nc(-c2cccc(C(=O)NCc3ccccc3)c2)cnc1N [Example 674, 3-{5-amino-6-[(1E)-N-azepan-1-ylethanimidoyl]pyrazin-2-yl}-N-(phenylmethyl)benzamide] | 0.05 to 1 µM
Nc1ncc(-c2cccc(C(=O)NCc3ccccc3)c2)nc1/C=N/NCc1ccccc1 [Example 675, 3-(5-amino-6-{(E)-[(phenylmethyl)hydrazono]methyl}pyrazin-2-yl)-N-(phenylmethyl)benzamide] | ≥ 10 µM
N=C(N)N/N=C/c1nc(-c2cccc(C(=O)NCc3ccccc3)c2)cnc1N [Example 676, 3-[5-amino-6-((E)-{[amino(imino)methyl]hydrazono}methyl)pyrazin-2-yl]-N-(phenylmethyl)benzamide] | ≥ 10 µM
Nc1ncc(-c2cccc(C(=O)NCc3ccccc3)c2)nc1/C=N/NCCO [Example 677, 3-(5-amino-6-{(E)-[(2-hydroxyethyl)hydrazono]methyl}pyrazin-2-yl)-N-(phenylmethyl)benzamide] | 1 to 10 µM
Nc1ncc(-c2cccc(C(=O)NCc3ccccc3)c2)nc1/C=N/Nc1ccccn1 [Example 678, 3-{5-amino-6-[(E)-(pyridin-2-ylhydrazono)methyl]pyrazin-2-yl}-N-(phenylmethyl)benzamide] | ≥ 10 µM
N#Cc1ccc(N/N=C/c2nc(-c3cccc(C(=O)NCc4ccccc4)c3)cnc2N)cc1 [Example 679, 3-(5-amino-6-{(E)-[(4-cyanophenyl)hydrazono]methyl}pyrazin-2-yl)-N-(phenylmethyl)benzamide] | ≥ 10 µM
Cc1ccc(N/N=C/c2nc(-c3cccc(C(=O)NCc4ccccc4)c3)cnc2N)cc1 [Example 680, 3-(5-amino-6-{(E)-[(4-methylphenyl)hydrazono]methyl}pyrazin-2-yl)-N-(phenylmethyl)benzamide] | ≥ 10 µM
Nc1ncc(-c2cccc(C(=O)NCc3ccccc3)c2)nc1/C=N/O [Example 681, 3-{5-amino-6-[(E)-(hydroxyimino)methyl]pyrazin-2-yl}-N-(phenylmethyl)benzamide] | 1 to 10 µM
Nc1ncc(-c2cccc(CO)c2)nc1-c1nc(-c2ccccn2)n[nH]1 [Example 682, {3-[5-amino-6-(3-pyridin-2-yl-1H-1,2,4-triazol-5-yl)pyrazin-2-yl]phenyl}methanol] | 1 to 10 µM
Nc1ncc(-c2cccc(CN[C@@H]3CCc4ccccc43)c2)nc1-c1nc(C2CCCNC2)n[nH]1 (stereo partly drawn) [Example 683, 5-(3-{[(1R)-2,3-dihydro-1H-inden-1-ylamino]methyl}phenyl)-3-(3-piperidin-3-yl-1H-1,2,4-triazol-5-yl)pyrazin-2-amine] | < 0.05 µM
CN(C)c1ccc(C(=O)NCCCNC(=O)c2nc(-c3cccc(C(=O)NCc4ccccc4)c3)cnc2N)cc1 [Example 684, 3-amino-N-[3-({[4-(dimethylamino)phenyl]carbonyl}amino)propyl]-6-(3-{[(phenylmethyl)amino]carbonyl}phenyl)pyrazine-2-carboxamide] | ≥ 10 µM
Nc1ncc(-c2cccc(CN[C@H]3CCc4ccccc43)c2)nc1C(=O)N[C@H]1CCNC1 [Example 685, 3-amino-6-(3-{[(1S)-2,3-dihydro-1H-inden-1-ylamino]methyl}phenyl)-N-[(3S)-pyrrolidin-3-yl]pyrazine-2-carboxamide] | < 0.05 µM
CC(C)(C)OC(=O)N1CCC(N2CC[C@H](NC(=O)c3nc(-c4cccc(C(=O)NCc5ccccc5)c4)cnc3N)C2)CC1 [Example 686, 1,1-dimethylethyl 4-[(3S)-3-({[3-amino-6-(3-{[(phenylmethyl)amino]carbonyl}phenyl)pyrazin-2-yl]carbonyl}amino)pyrrolidin-1-yl]piperidine-1-carboxylate] | 1 to 10 µM
